Assay results reported in publication PMC9632859, “Modulation of NMDA receptor activity by CR4056, an imidazoline-2 receptor ligand with analgesic properties” (Frontiers in Pain Research, 2022).
“And” between values parts separate entries of the source, which are not always exact repeats. Equal values may be shown once.

Legend:
NMDA receptor [1] = assay: NMDA-evoked currents in primary culture of cortical neurons, whole-cell patch-clamp; format: cell-based, rat; conditions: for IC50: NMDA 100 µM + glycine 10 µM, read-out: IC50 of reduction of NMDA-evoked current; for maximal reduction of NMDA current (efficacy): from dose-response curve
Experimental: (§1) Primary cultures of cortical (CX) and cerebellar (CB) neurons were prepared from newborn (CX) or seven days old (CB) Sprague-Dawley rats Briefly, cells from cortex and cerebellum were dispersed with trypsin (0.24 mg/ml; Sigma Aldrich, Milan, Italy) and plated at a density of 0.8 × 10^6 cells/ml on 35 mm Falcon dishes coated with poly-L-lysine (10 µg/ml, Sigma Aldrich). Cells were plated in basal Eagle's Medium (BME; Celbio, Milan, Italy), supplemented with 10% fetal bovine serum (Celbio), 2 mM glutamine, 25 mM KCl and 100 µg/ml gentamycin (Sigma Aldrich) and maintained at 37°C in 5% CO2. After 24 h in vitro, the medium was replaced with 1:1 mixture of BME and Neurobasal medium (Celbio, Milan) containing 2% B27 supplement, 1% antibiotic, and 0.25% glutamine (Invitrogen). At […] in vitro (DIV5), cytosine arabinofuranoside (Ara-C) was added at final concentration of 1 µM. Thereafter, half of the medium was replaced twice a week with Neurobasal medium containing 2% B27 supplement, 1% antibiotic, and 0.25% glutamine.
(§2) Recordings were performed in cortical and cerebellar neurons after 7–9 days in culture or in spinal cord slices from postnatal rats. All recordings were performed at room temperature, under voltage-clamp in the whole-cell configuration of the patch-clamp technique ([19]). […] Currents were amplified with an Axopatch 1D amplifier (Axon Instruments, Foster City. CA), filtered at 5 kHz, digitized at 10 kHz.
(§3) The chamber used for recording from cultured neurons was continuously perfused at 2 ml/min with an extracellular medium composed of (mM): 145 NaCl, 5 KCl, 1 CaCl2, 5 Hepes, 5 Glucose, and 20 Sucrose, pH 7.4 with NaOH. Intracellular solution contains (mM): 140 KCl, 3 MgCl2, 5 EGTA, 5 Hepes, and 2 ATP-Na, pH 7.3 with KOH.
(§4) All drugs were applied directly by gravity through a Y-tube perfusion system ([21]) in the experiments performed in culture while in slice experiments CR4056 and the receptor antagonists were bath perfused.
When CR4056 (10 µM) was delivered inside the cell through the patch pipette the response to NMDA application was recorded at time 0 (just after breaking inside the cell) and after 1.5, 3, 4.5, 6 min. The NMDA-evoked current was recorded at these time intervals and the amplitude of the current was measured.
The effect of CR 4056 in primary neuronal cultures was calculated as % variation of the NMDA-evoked current after application of the drug. A negative variation means a reduction of the control current. Off-line data analysis, curve fitting, and figure preparation were performed with Clampfit 9 or 10 (Molecular Devices, Sunnyvale, CA, United States), Origin 4.1 (Microcal, Northampton, MA, United States), and Microsoft Office (Microsoft). SigmaPlot 11 (SYSTAT, Palo Alto, CA, United States) and GraphPad Prism 9.3 (GraphPad Software, San Diego, CA, United States) were used for statistical analysis.
NMDA-evoked currents were recorded in primary culture of cortical neurons using the patch-clamp technique in the whole cell configuration. Fast application of NMDA (100 µM) and Glycine (10 µM) elicited an inward current that was decreased by CR4056 (Figure 1A); the effect was reversible and dose-dependent (Figure 1B). […] (Figure 1B).

GluN1-GluN2B receptors = GluN1-GluN2B receptors (Homo sapiens, UniProt Q05586+Q13224); assay: NMDA-evoked currents in JM4C fibroblasts expressing GluN1-GluN2B; format: cell-based; conditions: for IC50: 0.1–100 µM, read-out: IC50 of reduction of NMDA-evoked current, GluN1-GluN2B; for Emax: read-out: efficacy (Eff, maximal effect) on NMDA-evoked current, GluN1-GluN2B
Chain of GluN1-GluN2B receptors (Q13224 27-1484, other chains not shown): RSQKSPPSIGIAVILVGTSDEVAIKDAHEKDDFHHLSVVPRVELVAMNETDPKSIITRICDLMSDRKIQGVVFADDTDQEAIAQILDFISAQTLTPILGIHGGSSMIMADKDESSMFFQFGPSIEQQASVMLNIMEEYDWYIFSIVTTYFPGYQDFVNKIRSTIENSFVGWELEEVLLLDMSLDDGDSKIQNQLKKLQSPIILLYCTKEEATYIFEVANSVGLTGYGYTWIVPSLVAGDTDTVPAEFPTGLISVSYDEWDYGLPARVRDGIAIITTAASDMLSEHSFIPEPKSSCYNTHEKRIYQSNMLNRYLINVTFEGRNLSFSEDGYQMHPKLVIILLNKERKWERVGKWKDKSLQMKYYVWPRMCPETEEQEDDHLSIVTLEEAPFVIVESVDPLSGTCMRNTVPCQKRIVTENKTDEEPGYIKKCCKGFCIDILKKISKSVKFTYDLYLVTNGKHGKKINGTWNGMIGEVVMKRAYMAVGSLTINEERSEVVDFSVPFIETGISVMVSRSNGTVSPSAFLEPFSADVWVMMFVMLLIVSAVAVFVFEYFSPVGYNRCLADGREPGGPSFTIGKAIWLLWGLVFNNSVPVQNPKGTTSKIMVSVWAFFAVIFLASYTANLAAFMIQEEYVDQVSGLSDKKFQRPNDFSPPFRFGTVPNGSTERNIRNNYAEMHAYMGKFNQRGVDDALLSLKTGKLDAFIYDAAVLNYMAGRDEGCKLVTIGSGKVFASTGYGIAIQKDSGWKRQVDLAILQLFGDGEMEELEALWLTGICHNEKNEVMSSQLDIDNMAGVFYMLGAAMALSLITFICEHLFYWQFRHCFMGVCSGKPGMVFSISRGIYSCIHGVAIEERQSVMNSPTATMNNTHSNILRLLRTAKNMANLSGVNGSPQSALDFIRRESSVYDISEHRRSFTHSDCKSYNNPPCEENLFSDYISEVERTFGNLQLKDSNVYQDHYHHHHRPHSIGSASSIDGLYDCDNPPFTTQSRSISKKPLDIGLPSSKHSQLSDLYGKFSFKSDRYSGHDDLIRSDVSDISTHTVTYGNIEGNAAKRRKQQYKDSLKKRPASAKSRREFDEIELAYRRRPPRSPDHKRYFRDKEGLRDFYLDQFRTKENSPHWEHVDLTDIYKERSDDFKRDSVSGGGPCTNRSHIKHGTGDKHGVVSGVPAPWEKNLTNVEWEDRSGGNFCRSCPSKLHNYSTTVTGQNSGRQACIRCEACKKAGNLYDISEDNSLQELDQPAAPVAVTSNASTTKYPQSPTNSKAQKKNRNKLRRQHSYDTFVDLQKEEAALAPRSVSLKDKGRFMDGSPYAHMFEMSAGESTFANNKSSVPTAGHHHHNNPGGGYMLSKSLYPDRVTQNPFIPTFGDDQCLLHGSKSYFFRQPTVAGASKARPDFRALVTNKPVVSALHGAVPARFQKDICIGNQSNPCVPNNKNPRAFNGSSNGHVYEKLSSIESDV
Experimental: (§5) Mouse connective tissue fibroblasts JM4C cells stably transfected with NR1A/NR2A or NR1A/NR2B human NMDA inducible receptors were kindly donated by Dr. Paul Whiting, Merk Sharp / Dohme (UK). They were grown in Dulbecco's Modified Basal Eagle's medium (DMEM) with Na+ pyruvate, 4,500 mg glucose and glutamine. For growing, DMEM was added with geneticin 1 mg/ml (Sigma) and foetal bovine serum 10% (Celbio). One day before experiment, fibroblasts confluent dishes were split with trypsin-EDTA 0.05% (Euroclone) and plated at the density of 0.5 × 10^6 cells/ml in 2 ml dishes containing an inducing DMEM with ketamine (final concentration 0.015%, Gellini International, Italy) and 25 nM dexamethasone (Sigma Aldrich) to induce NMDA receptors expression.
as §2, §3, §4
(§6) Increasing concentrations of CR4056 (0.1–100 µM) were applied to NMDA-evoked currents in fibroblasts expressing GluN1- GluN2A or GluN1- GluN2B subunits (Figure 3A).

PKCε translocation = tested on: PKCε translocation; set-up: method as in PMID 31454418; conditions: activated sensory neurons, cultured DRG; cited from earlier work
[2] = target: GluN1-GluN2A containing receptors (Homo sapiens, UniProt Q05586+Q12879); assay: NMDA-evoked currents in JM4C fibroblasts expressing GluN1-GluN2A; format: cell-based; conditions: for IC50: 0.1–100 µM, read-out: IC50 of reduction of NMDA-evoked current, GluN1-GluN2A; for Emax: read-out: efficacy (Eff, maximal effect) on NMDA-evoked current, GluN1-GluN2A
Chain of GluN1-GluN2A containing receptors (Q12879 23-1464, other chains not shown): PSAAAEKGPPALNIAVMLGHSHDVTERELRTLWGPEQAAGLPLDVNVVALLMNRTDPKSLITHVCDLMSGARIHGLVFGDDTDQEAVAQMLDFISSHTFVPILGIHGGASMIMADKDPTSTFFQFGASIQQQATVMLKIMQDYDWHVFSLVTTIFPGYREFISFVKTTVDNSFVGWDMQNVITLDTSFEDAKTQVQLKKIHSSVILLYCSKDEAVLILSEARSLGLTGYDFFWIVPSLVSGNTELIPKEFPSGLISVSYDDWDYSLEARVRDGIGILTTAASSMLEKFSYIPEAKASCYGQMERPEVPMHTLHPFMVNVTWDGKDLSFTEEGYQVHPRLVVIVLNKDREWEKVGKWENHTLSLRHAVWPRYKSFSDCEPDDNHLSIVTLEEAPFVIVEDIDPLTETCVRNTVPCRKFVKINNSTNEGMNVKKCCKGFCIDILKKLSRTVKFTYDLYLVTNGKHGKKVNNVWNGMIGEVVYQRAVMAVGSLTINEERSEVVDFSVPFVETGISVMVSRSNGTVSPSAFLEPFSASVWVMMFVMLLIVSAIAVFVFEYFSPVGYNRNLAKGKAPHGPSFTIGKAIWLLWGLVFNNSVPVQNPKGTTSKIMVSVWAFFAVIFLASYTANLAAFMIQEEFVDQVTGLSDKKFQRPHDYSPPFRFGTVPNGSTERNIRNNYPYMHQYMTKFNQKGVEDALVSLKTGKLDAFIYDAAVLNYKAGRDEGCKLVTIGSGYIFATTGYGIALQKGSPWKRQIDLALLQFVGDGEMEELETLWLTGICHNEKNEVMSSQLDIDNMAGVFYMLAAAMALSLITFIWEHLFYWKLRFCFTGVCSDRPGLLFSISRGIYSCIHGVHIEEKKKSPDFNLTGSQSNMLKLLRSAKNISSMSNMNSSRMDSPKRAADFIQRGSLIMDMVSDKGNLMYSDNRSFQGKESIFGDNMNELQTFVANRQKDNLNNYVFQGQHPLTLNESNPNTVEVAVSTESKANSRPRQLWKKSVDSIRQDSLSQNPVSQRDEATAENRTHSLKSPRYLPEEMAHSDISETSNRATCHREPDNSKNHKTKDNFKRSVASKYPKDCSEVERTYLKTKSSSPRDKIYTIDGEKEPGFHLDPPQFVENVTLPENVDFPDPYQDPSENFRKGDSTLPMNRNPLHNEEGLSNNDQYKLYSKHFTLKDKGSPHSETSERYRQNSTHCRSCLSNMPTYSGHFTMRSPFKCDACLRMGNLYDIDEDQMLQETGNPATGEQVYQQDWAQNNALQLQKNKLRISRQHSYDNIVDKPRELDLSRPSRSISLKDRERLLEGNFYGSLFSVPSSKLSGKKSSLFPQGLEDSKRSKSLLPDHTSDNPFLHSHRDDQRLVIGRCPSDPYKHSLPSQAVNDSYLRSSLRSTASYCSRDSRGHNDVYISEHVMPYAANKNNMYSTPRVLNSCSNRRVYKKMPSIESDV
Experimental: as §5, §2, §3, §4, §6

NMDA receptor [3] = assay: NMDA-evoked currents in primary culture of cerebellar neurons, whole-cell patch-clamp; format: cell-based, rat; conditions: CR4056 10 µM, glycine 1-500 µM, one-way ANOVA
Experimental: as §1, with “Thereafter, half of the medium was replaced twice a week with Neurobasal medium containing 2% B27 supplement, 1% antibiotic, and 0.25% glutamine.” left out
The effect of CR 4056 in primary neuronal cultures was calculated as % variation of the NMDA-evoked current after application of the drug. […]
Glycine is an important co-agonist of the NMDA receptor. To test the dependence of CR4056 modulation on glycine concentration we measured the reduction of NMDA current by CR4056 (10 µM) in the presence of 1, 5, 10, 50, 100, and 500 µM glycine.

[4] = tested on: lamina II neuron excitability; assay: Current-clamp recording of summated EPSPs and action potentials on repetitive dorsal root stimulation; format: cell-based, rat
Excerpt: (§7) Sprague–Dawley rats (male and female at postnatal days P15-P23) were anaesthetized with isoflurane and decapitated. The spinal cord and vertebrae were rapidly removed and placed in ice-cold dissecting Krebs' solution (composition in mM: 90 NaCl, 50 sucrose, 2.5 KCl, 25 NaHCO3, 1 NaH2PO4·H2O, 25 glucose, 6 MgCl2, 1.5 CaCl2, 1 kynurenic acid), bubbled with carboxygen (95% O2, 5% CO2). The lumbar part of the spinal cord was isolated, embedded in low melting point agarose (3% w/v, Thermo Fisher Scientific, Waltham, United States), and transverse slices (500 µm thick) were obtained using a vibrating microtome (WPI, Sarasota, United States). Slices were incubated in oxygenated incubation Krebs' solution (composition in mM: 125 NaCl, 2.5 KCl, 25 NaHCO3, 1 NaH2PO4·H2O, 25 glucose, 6 MgCl2, 1.5 CaCl2) at 32°C for 30 min and then used for recording.
(§8) Neurons in spinal cord slices were visualized using an Axioskop microscope (Zeiss, Oberkochen, Germany), fitted with Nomarski optics and connected to a CCD camera (Dage-MTI, Michigan City, United States). Patch-clamp recordings were performed by using thick-walled borosilicate pipettes (3–5 MOhm resistance). Data were recorded and acquired using a MultiClamp 700A amplifier and the pClamp 10 software (Molecular Devices, Sunnyvale, United States). Sampling rate was 10 kHz, and data were filtered at 2–5 kHz. The dorsal root attached to each slice was stimulated using a suction electrode. Stimulus duration was 0.1 ms, stimulus intensity was 500 µA, able to activate both A and C primary afferent fibers ([20]). Extracellular field potentials were recorded by positioning a glass pipette (3–5 µm diameter, filled with Krebs' extracellular solution) on lamina II in spinal cord slices. Extracellular synaptic potentials were evoked by dorsal root stimulation, as described above, and amplified by using a Multiclamp 700A amplifier (Molecular Devices, Sunnyvale, United States).
For the experiments on neurons in slices the following Krebs' extracellular solution was used (composition in mM): 125 NaCl, 2.5 KCl, 25 NaHCO3, 1 NaH2PO4·H2O, 25 glucose, 1 MgCl2, 2 CaCl2. A cesium-based internal solution was used during the voltage-clamp experiments (composition in mM: 120 caesium methanesulfonate, 10 sodium methanesulfonate, 10 EGTA, 1 CaCl2, 10 Hepes, 5 lidocaine N-ethyl bromide quaternary salt-Cl, 5 MgATP, pH adjusted to 7.2 with CsOH, osmolarity 290 mOsmol L^−1), while a potassium-based solution was utilized for the experiments in current-clamp (composition in mM: 120 potassium methanesulfonate, 10 NaCl, 10 EGTA, 1 CaCl2, 10 Hepes, 5 MgATP, pH adjusted to 7.2 with KOH, osmolarity 300 mOsmol L^−1).
Finally, we tested whether CR4056 was able to depress lamina II neuron excitability in response to repetitive stimulation of the dorsal root. […]

[5] = tested on: field potentials from dorsal horn laminae I-II (mainly mediated by AMPARs); assay: Extracellular field potentials evoked by dorsal root stimulation in spinal cord slices; format: cell-based, rat; conditions: 6 slices; p > 0.05
Excerpt: as §7, with “Slices were incubated in oxygenated incubation Krebs' solution (composition in mM: 125 NaCl, 2.5 KCl, 25 NaHCO3, 1 NaH2PO4·H2O, 25 glucose, 6 MgCl2, 1.5 CaCl2) at 32°C for 30 min and then used for recording.” left out
Neurons in spinal cord slices were visualized using an Axioskop microscope (Zeiss, Oberkochen, Germany), fitted with Nomarski optics and connected to a CCD camera (Dage-MTI, Michigan City, United States). […] Data were recorded and acquired using a MultiClamp 700A amplifier and the pClamp 10 software (Molecular Devices, Sunnyvale, United States). […] Extracellular field potentials were recorded by positioning a glass pipette (3–5 µm diameter, filled with Krebs' extracellular solution) on lamina II in spinal cord slices. […]
To determine whether the effect of CR4056 on NMDA EPSCs was due to a decrease of glutamate release from primary afferents or to a modulation of NMDARs, we recorded extracellular field potentials evoked by dorsal root stimulation (Figure 4E). […]

[6] = tested on: NMDA-mediated postsynaptic excitatory currents (EPSCs); assay: NMDA EPSCs evoked by dorsal root stimulation in lamina II neurons of spinal cord slices; format: cell-based, rat
Excerpt: as §7
as §8, with “Extracellular synaptic potentials were evoked by dorsal root stimulation, as described above, and amplified by using a Multiclamp 700A amplifier (Molecular Devices, Sunnyvale, United States).” left out
We next investigated the modulatory effect of CR4056 on NMDA-mediated postsynaptic excitatory currents (EPSCs) recorded from lamina II neurons in rat spinal cord slices. […] To isolate NMDA EPSCs (recorded in voltage clamp at +40 mV), AMPA, GABAA and glycine receptors were blocked by NBQX (10 µM), bicuculline (10 µM), and strychnine (0.5 µM), respectively. […]

[7] = CR4056 10 µM, 4 pulses 5–10 Hz, 500 µA

c1ccc2c(c1)OCC(C1=NCCN1)O2 (stereo not shown) [Idazoxan, reference compound]
effect on NMDA-elicited current applied alone (NMDA receptor [1]; 10 µM): did not affect

Cl.c1ccc2oc(C3=NCCN3)cc2c1 [2-BFI, 2-(2-Benzofuranyl)-2-imidazoline hydrochloride, reference compound]
IC50 (GluN1-GluN2B receptors): 11 ± 6 µM | Emax (GluN1-GluN2B receptors): -73 ± 7% | effect on PKCε translocation (PKCε translocation): ineffective | IC50 [2]: 23 ± 12 µM | Emax [2]: -39 ± 6% | IC50 (NMDA receptor [1]; cortical neurons): 8 µM and 13 µM | maximal reduction of NMDA current (efficacy) (NMDA receptor [1]; cortical neurons): 76 ± 2% and 48 ± 5%

c1ccc(-c2ncc3cc(-n4ccnc4)ccc3n2)cc1 [CR4056, 2-phenyl-6-(1H-imidazol-1yl)quinazoline]
effect on NMDA current at high glycine concentrations (NMDA receptor [3]): significatively reduced | change of area of the summated EPSPs [4, 7]: −29.7 ± 5.4% | change of mean number of action potentials generated at each train [4, 7]: −50.9 ± 12.6% | EPSP area in CR, mean ([4]; during CR4056, N 7, control mean 11858.457): 8924.714 mV*ms | N action potentials/train in CR, median ([4]; during CR4056, N 7, control median 0.310): 0.150 | effect on field potential area [5]: did not affect | average reduction in NMDA EPSC amplitude ([6]; CR4056 10 µM, +40 mV, NBQX, bicuculline, strychnine present, 7 neurons): 26.3 ± 4.2% | EPSC amplitude in WASH, mean ([6]; after washing of CR4056, N 7): 514.986 pA | EPSC amplitude in CR, mean ([6]; during CR4056, N 7, control mean 597.629): 475.443 pA | IC50 (GluN1-GluN2B receptors): 11 ± 2 µM | Emax (GluN1-GluN2B receptors): -86 ± 6% | effect on PKCε translocation (PKCε translocation): reduces PKCε translocation | IC50 [2]: 21 ± 12 µM | Emax [2]: -47 ± 3% | change of amplitude of NMDA currents, compound dialyzed inside the cell via patch pipette (NMDA receptor [1]; 10 µM intracellular, p > 0.05, t-test): did not change significantly | CR4056 effect on NMDA current when co-applied with idazoxan (NMDA receptor [1]; CR4056 10 µM + idazoxan 10 µM): does not change CR4056 effect | reduction of current evoked by increasing NMDA concentration (type of antagonism) (NMDA receptor [1]; CR4056 10 µM, NMDA 10 to 100 µM): reduced to the same extent | reduction of NMDA currents in control vs after pertussis toxin (NMDA receptor [1]; PTX 200 ng/ml for 24 h): no statistically significant differences | effect on NMDA current at high glycine concentrations (NMDA receptor [1]; cortical neurons, CR4056 10 µM, glycine 1-500 µM, one-way ANOVA): significatively reduced | IC50 (NMDA receptor [1]; cortical neurons): 5.3 ± 0.1 µM | maximal reduction of NMDA current (efficacy) (NMDA receptor [1]; cortical neurons): 84.4 ± 6% | reduction of NMDA-evoked current at +40 mV (NMDA receptor [1]; holding potential +40 mV, CR4056 10 µM): −31 ± 1% | reduction of NMDA-evoked current at −40 mV (NMDA receptor [1]; holding potential −40 mV, CR4056 10 µM): −33 ± 4%
